The values that follow come from patent publication US5314908A, “Compounds useful as antiproliferative agents” (Whitby Research, Inc., priority 1992, dated 1994).

SMILES strings stand for the structures. Entries after “also recorded” stand apart in the source; their conditions may differ.

Broadly, the IC50 is the concentration that inhibits the measured activity by half.

The conditions of data set [1]: Frohn et al.; Clemens et al.; cited from earlier work.
Data set [2] concerns MCF-7 cells. The data set can be described thus: growth inhibition of estrogen positive human breast cancer cell line MCF-7 in culture. Particulars: for inhibition of MCF-7 cell growth, by concentration: 10^-15 M to 10^-5 M, inhibitory = proliferation decreased by 20% or more vs controls; for comparative assessment of potency / maximal inhibition, MCF-7 cell growth: summary statement; for potency relative to melatonin (times more potent), MCF-7 cell growth: compared with melatonin IC50. In kind it is cell-based. As to the method:
(§1) The above examples were tested for their ability to inhibit the growth of both estrogen positive (MCF-7) and estrogen negative (Hs0578t) human breast cancer cell lines in culture. […] MCF-7 cells were maintained in Dulbecco's modified Eagle's medium (DMEM), supplemented with 10% fetal bovine serum (FBS), penicillin (10,000 units/ml) and streptomycin (10 mg/ml) at 37° C. in a humidified atmosphere containing 5% CO2. Hs0578t cells were maintained under similar conditions, however DMEM containing high glucose was used and 10 ug/ml of insulin was added to the medium. Prior to each experiment, cells from stock flasks were suspended by treatment with 0.2% EDTA in phosphate buffered saline (pH 7.3). The cells were then centrifuged at 1000 rpm for 7 minutes, then resuspended in fresh medium and counted on a hemocytometer. Cells were adjusted to a density of 3.0×10^6 /plate in 5 mls of supplemented plating medium. After 5 hours, the plating medium was replaced with fresh medium containing either melatonin or the above examples in concentrations ranging from 10^-15 M to 10^-5 M. These compounds were initially dissolved in ethanol and diluted to the appropriate final concentration with DMEM; the final concentration of ethanol per plate was 0.005%. Control cells were exposed to the ethanol vehicle alone (0.005%). Five days after initial seeding, the cells were resuspended with PBS-EDTA and counted on a hemocytometer to determine the total cell counts per plate. Each experiment was run using triplicate plates for each concentration of melatonin or above example as well as the vehicle controls. Cell growth in each of the experimental plates was expressed as a percent of control growth (100%). A given concentration of either an above example or of melatonin was considered to be inhibitory if it decreased cell proliferation by 20% or more as compared with controls. Since most of the dose-response curves were irregular, the approximate IC50 for each example was estimated from a best fit (manually fitted) curve spanning from the 100% control growth level to the maximal inhibitory concentration of that example. Effects of the above examples on estrogen receptor positive and estrogen receptor negative human breast cancer cell lines (MCF-7 and Hs0578t, respectively) are summarized in FIGS. 1-15, and discussed below. FIGS. 1-6 summarize effects on the MCF-7 cell line, while FIGS. 7-15 describe effects on the Hs0578t cell line.

For data set [3], the system named is Hs0578t cells. Nature of the data set: growth inhibition of estrogen negative human breast cancer cell line Hs0578t in culture. The class given is cell-based. The conditions noted are these: for inhibition of Hs0578t cell growth, by concentration / IC50: 10^-15 M to 10^-5 M; for inhibition of Hs0578t cell growth, by concentration: inhibitory = proliferation decreased by 20% or more vs controls; for IC50: Homo sapiens, 120 h, approximate, estimated from manually fitted best fit curve, cell counts five days after seeding; for comparative assessment of potency / maximal inhibition, Hs0578t cell growth: summary statement. As to the method:
as §1

Data set [4] has as its system frog skin. The conditions noted are these: Heward and Hadley 1975; cited from earlier work.
Data set [5] relates to chicken retina. Particulars: Dubocovich 1984; cited from earlier work.
Data set [6] deals with MCF-7 cells. The conditions noted are these: reference molecule, known activity; cited from earlier work.
The subject of data set [7] is mammary tumors. Particulars: melatonin administration; cited from earlier work.
In data set [8] the test system is Hs0578t cells. Particulars: reference molecule, known activity; high concentrations; cited from earlier work.

In the case of `COc1cc2c(CCNC(C)=O)c(C)[nH]c2c(Cl)c1Cl` [2-methyl-6,7-dichloromelatonin], the metabolic stability result in data set [1] is listed as “improved metabolic stability”.

On to `CC(=O)NCCn1c(C)ccc1C` [Example #1], for which the “inhibition of MCF-7 cell growth, by concentration” value (from here on “inhibition of MCF-7 cell growth”) in data set [2] is “all concentrations except 10^-11 M and 10^-7 M inhibited MCF-7 cell growth”. Moreover, the “stimulation of Hs0578t cell growth” value in data set [3] (10^-9 M) is reported as “cell growth is actually stimulated at 10^-9 M”. In data set [3], the “inhibition of Hs0578t cell growth, by concentration” value (shortened to “inhibition of Hs0578t cell growth”) is listed as “inhibition of Hs0578t cell growth only at 10^-5 M” and the half-inhibitory concentration (IC50) is about 6 nM.

As to `O=C(NCCc1c[nH]c2ccccc12)OCc1ccccc1` [Example #2, N-Benzyloxycarbonyltryptamine], in data set [2], the “inhibition of MCF-7 cell growth” value was “inhibition of MCF-7 cell growth at all concentrations for Examples #2 and 9, with the exceptions of Example #2 at 10^-13 M”; the “comparative assessment of potency / maximal inhibition, MCF-7 cell growth” value is recorded as “elicits the best maximal inhibitory response; also recorded: highly potent inhibitor of both cell lines, but also induces in both a substantial inhibitory response at low concentrations”. In data set [3], the “inhibition of Hs0578t cell growth” value was “inhibits Hs0578t cell growth at 10^-11 M and 10^-9 M”; the “comparative assessment of potency / maximal inhibition, Hs0578t cell growth” value is “highly potent inhibitor of both cell lines, but also induces in both a substantial inhibitory response at low concentrations”.

`COc1ccc2[nH]c3c(c2c1)CCN(C(C)=O)C3C` (stereo not drawn) [Example #3, 1-Methyl-2-N-Acetyl-6-Methoxy-1,2,3,4-Tetrahydro-β-Carboline]: the “inhibition of MCF-7 cell growth” value in data set [2] is given as “inhibited MCF-7 cell growth at all concentrations”. Further, the “inhibition of Hs0578t cell growth” value in data set [3] was “All concentrations of these compounds were inhibitory to cell growth”.

`COc1ccc2[nH]c(Cc3ccccc3)c(CCNC(C)=O)c2c1` [Example #4, 2-Benzyl-3-Ethylacetamido-5-Methoxyindole]: in data set [2], the “inhibition of MCF-7 cell growth” value was “All concentrations of Example #4 were inhibitory to cell growth” and the “potency relative to melatonin (times more potent), MCF-7 cell growth” value is recorded as 60 times. In addition, in data set [3], the “inhibition of Hs0578t cell growth” value was “inhibits Hs0578t cell growth at 10^-13 M and 10^-7 M”; the “comparative assessment of potency / maximal inhibition, Hs0578t cell growth” value is listed as “appears to be the most potent inhibitor of Hs0578t cells”.

For the compound `CCC(=O)NCCc1c(Cc2ccccc2)[nH]c2ccccc12` [Example #5, 2-Benzyl-N-Propionyltryptamine], in data set [2], the “concentration at which the maximal effect was seen (MCF-7)” value is recorded as 10^-5 M; the “inhibition of MCF-7 cell growth” value was “inhibited cell growth at all concentrations except 10^-13 M, 10^-11 M and 10^-7 M”. The “inhibition of Hs0578t cell growth” value in data set [3] is on record as “no inhibition of Hs0578t cell growth was observed”.

Take `CC(=O)N1CCc2c([nH]c3ccccc23)C1` [Example #6, 2-N-Acetyl-1,2,3,4-Tetrahydro-β-Carboline]: in data set [2], the “inhibition of MCF-7 cell growth” value was “All concentrations except 10^-13 M and 10^-5 M were inhibitory to MCF-7 cell growth”; the “comparative assessment of potency / maximal inhibition, MCF-7 cell growth” value is “appears to be the most potent inhibitor of MCF-7 cell growth”.

As for `CC(=O)N1CCc2c([nH]c3ccc(OCc4ccccc4)cc23)C1C` (stereo not drawn) [Example #7, 1-Methyl-2-N-Acetyl-6-Benzyloxy-1,2,3,4-Tetrahydro-β-Carboline], in data set [2], the “inhibition of MCF-7 cell growth” value is reported as “All concentrations of Example #7 were inhibitory” and the “potency relative to melatonin (times more potent), MCF-7 cell growth” value was determined as 100 times. The Emax at 1 fM in data set [2] (Homo sapiens, MCF7, at 10^-15 M, read-out: maximal effect, inhibition (MCF-7 cell growth)) is 37%. In data set [3], the “inhibition of Hs0578t cell growth” value is reported as “All concentrations of these compounds were inhibitory to cell growth, with the exception of Example #7 at 10^-11 M” and the 50% inhibitory concentration (IC50) is about 10 nM.

Regarding `CC(=O)NCCc1c(Cc2ccccc2)[nH]c2ccccc12` [Example #8, 2-Benzyl-3-Ethylacetamidoindole], in data set [3], the IC50 was about 0.1 nM.

Take `CC(=O)NCCc1c(Cc2cccc3ccccc23)[nH]c2ccccc12` [Example #9]: in data set [2], the “inhibition of MCF-7 cell growth” value is “inhibition of MCF-7 cell growth at all concentrations for Examples #2 and 9, with the exceptions of Example #2 at 10^-13 M and Example #9 at 10^-13 M and 10^-5 M”. In addition, in data set [3], the “inhibition of Hs0578t cell growth” value was “inhibits Hs0578t cell growth at 10^-5 M and 10^-7 M”; the IC50 is about 4 nM; the “comparative assessment of potency / maximal inhibition, Hs0578t cell growth” value is “shows the best maximal inhibition of growth”.

Take `CC(=O)NCCc1c(Cc2ccc(C)cc2)[nH]c2ccccc12` [Example #10, 2-(4-Tolylmethyl)-3-Ethylacetamidoindole]: the “inhibition of MCF-7 cell growth” value in data set [2] was “inhibits MCF-7 cell growth at 10^-15 M, 10^-13 M, and 10^-11 M”. Moreover, the “inhibition of Hs0578t cell growth” value in data set [3] is listed as “no inhibition of Hs0578t cell growth was observed”.

In the case of `COc1ccc(Cc2[nH]c3ccccc3c2CCNC(C)=O)cc1` [Example #11, 2-(4-Methoxyphenyl)Methyl-3-Ethylacetamidoindole], in data set [2], the “inhibition of MCF-7 cell growth” value is “inhibits MCF-7 cell growth at 10^-15 M and 10^-13 M”; the “comparative assessment of potency / maximal inhibition, MCF-7 cell growth” value is recorded as “not only a highly potent compound, but it elicits an impressive maximal inhibitory response at a very low concentration”. The “inhibition of Hs0578t cell growth” value in data set [3] is listed as “no inhibition of Hs0578t cell growth was observed”.

On to `CC(=O)NCCc1c[nH]c2ccc(O)cc12` [N-acetylserotonin], for which, in data set [4], the “melatonin blocking activity (frog skin lightening)” value is “melatonin blocking activity”.

For `CC(=O)NCCc1c[nH]c2ccccc12` [N-acetyltryptamine], in data set [4], the “melatonin blocking activity (frog skin lightening)” value is on record as “melatonin blocking activity”. Besides, the “antagonism of inhibitory effect of melatonin in chicken retina” value in data set [5] is on record as “competitively antagonized the inhibitory effect of melatonin in the chicken retina”.

For the compound `COc1ccc2[nH]cc(CCNC(C)=O)c2c1` [melatonin, 5-methoxy-N-actyltryptamine], in data set [6], the “inhibition of growth of estrogen positive cell lines” value is reported as “known to inhibit growth of estrogen positive cell lines”. For the same compound, the “effect on mammary carcinogenesis” value in data set [7] is “melatonin administration has been shown to inhibit”. Moreover, the “inhibition of growth of estrogen negative cell lines such as Hs0578t” value in data set [8] is “at high concentrations, can inhibit estrogen negative cell lines such as Hs0578t”. For the same compound, in data set [3], the “inhibition of Hs0578t cell growth” value is recorded as “no inhibitory effect in most experiments”.
